The values that follow come from patent US8629132B2, “Kinase inhibitors” (Genosco, priority 2009, dated 2014).

In one test the test system is HEL cells. The test is described as follows: Cell viability assay: JAK2 inhibition. It counts as cell-based, human. As to the method: Compounds of the invention are tested for their effects on JAK2 inhibition in human erythroleukemic cell line (HEL) to illustrate potential efficacy at the cellular level. The Janus-associated kinase (JAK) family, comprised of four different protein tyrosine kinases JAK1, JAK2, JAK3, and TYK2, plays an important role in cellular survival, proliferation, and differentiation. V617F, a unique mutation in the JAK2 gene (a valine-to-phenylalanine substitution) results in constitutive kinase activity and promotes deregulated hematopoiesis. JAK2 V617F is frequently detected in myeloproliferative disorders (MPDs), a group of clonal hematopoietic stem cell disorders that include polycythemia vera (PV), essential thrombocythemia (ET), and idiopathic myelofibrosis (IMF), all of which have the potential to transform to acute myeloid leukemia. JAK2 V617F is constitutively phosphorylated and able to activate downstream signaling in the absence of cytokine stimulation.
Compounds of the present invention were tested for their effects on viability of HEL cells. For cell viability assay, HEL cells expressing human JAK2 V617F were obtained from the American Type Culture Collection (ATCC, Manassas, Va.). This cell line was maintained with Roswell Park Memorial Institute (RPMI) medium (HyClone™) containing 10 bovine calf serum (BCS; Hyclone™) supplemented iron. The HEL cells were seeded at 2×10^4 cells in 96 well culture plates, and serially diluted compound was then added. After a 72-hour incubation period at 37° C., viability of cells was measured using the ATPLite 1 step assay (Perkin-Elmer™) that is based on the quantification of ATP from viable cells. CellTiter Aqueous assay (Promega™) was also performed in parallel as an orthogonal assay. IC50 values were calculated using nonlinear regression and defined as the concentration needed for a 50 reduction in luminescence or absorbance treated versus untreated control cells (Prism™ Software).

A further test deals with JAK2 (Homo sapiens, UniProt O60674). The experiment in a line: Kinase inhibition assay: JAK2. It counts as biochemical. Details: truncated human FAK, RET, FLT3, JAK2, and LRRK2; purchased Carna Biosciences.
Chain of JAK2 (O60674 826-1132 limits assumed): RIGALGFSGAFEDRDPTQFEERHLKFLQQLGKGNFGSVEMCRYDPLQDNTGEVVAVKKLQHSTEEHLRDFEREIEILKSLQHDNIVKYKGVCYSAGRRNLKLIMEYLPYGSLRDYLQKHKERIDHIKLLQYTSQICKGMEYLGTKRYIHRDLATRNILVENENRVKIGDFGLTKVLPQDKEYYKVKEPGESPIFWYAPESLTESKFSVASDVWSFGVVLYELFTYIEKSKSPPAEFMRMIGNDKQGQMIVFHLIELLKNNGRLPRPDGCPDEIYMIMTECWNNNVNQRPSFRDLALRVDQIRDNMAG

Turning to `COc1cc(Nc2ncc(C)c(-n3cc(C)c(CO)c3)n2)cc(OC)c1OC` [Compound 21, (4-methyl-1-(5-methyl-2-(3,4,5-trimethoxyphenylamino)pyrimidin-4-yl)-1H-pyrrol-3-yl)methanol], the “inhibition level compared with Sorafenib” value with HEL cells (HEL) is “greater than those exhibited by Sorafenib”. The half-maximal inhibitory concentration (IC50) was 144 nM in the test on HEL cells (Homo sapiens, 72-hour incubation, HEL cells expressing JAK2 V617F, read-out: Cell Viability: JAK2 kinase Inhibition HEL (IC50 nM)) and 7.7 nM on JAK2.

One may read the IC50 as the concentration that inhibits the measured activity by half.
